Measurements taken from PMC9224512, “New Insights into the Determinants of Specificity in Human Type I Arginase: Generation of a Mutant That Is Only Active with Agmatine as Substrate” (International Journal of Molecular Sciences, 2022).
Substitutions are numbered along the chain they refer to.

Tests used:
[1] = target: T1, type I human arginase D181T (Homo sapiens, UniProt P05089, D181T); assay: Kinetic and inhibition studies, D181T mutant; type: biochemical; details: substrate arginine
T1 sequence (P05089 1-322 D181T): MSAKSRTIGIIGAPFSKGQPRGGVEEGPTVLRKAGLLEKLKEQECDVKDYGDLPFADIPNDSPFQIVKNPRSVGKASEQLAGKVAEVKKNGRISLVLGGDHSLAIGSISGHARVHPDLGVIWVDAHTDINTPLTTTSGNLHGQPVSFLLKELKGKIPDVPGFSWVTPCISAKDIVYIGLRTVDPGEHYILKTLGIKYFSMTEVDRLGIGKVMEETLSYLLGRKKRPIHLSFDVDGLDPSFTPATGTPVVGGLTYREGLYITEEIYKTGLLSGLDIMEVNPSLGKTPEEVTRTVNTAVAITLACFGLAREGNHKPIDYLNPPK
Description: (§1) Bacterial cultures were grown with shaking at 37 °C in Luria Broth media, in the presence of ampicillin (100 μg/mL). The wild-type and mutant human liver arginase cDNAs were directionally cloned into the pBluescript II KS(+) expression vector and then expressed in E. coli JM109, following induction with 1 mM isopropyl β-D-thiogalactopyranoside. The bacterial cells were disrupted by sonication on ice (5 × 30 s pulses), centrifuged for 20 min at 12,000× g, and the obtained supernatant was precipitated with ammonium sulfate (60% saturation). The pellet, collected by centrifugation at 12,000× g for 10 min, was re-suspended in buffer 5 mM Tris–HCl (pH 7.5) containing 2 mM MnCl2 and dialyzed for 6 h at 4 °C against the same buffer. After incubation with 5 mM MnCl2 for 10 min at 60 °C, the enzyme variants were purified as previously described. The purity of the enzymes was evaluated by SDS–PAGE stained by Coomassie blue and immunodetection using an anti- rat arginase I antibody.
(§2) The single, double, triple, and chimera variants of human arginase type I were obtained by PCR, using the QuickChange site-directed mutagenesis kit (Stratagene, La Jolla, CA, USA); the plasmid pBluescript II KS(+) containing the human liver arginase cDNA was used as template. To obtain the chimeric species of human arginase type I, serial mutations were made in each loop to be modified, using as template DNA the wild-type arginase gene or the previous done mutation, subcloned in the plasmid pBluescript II KS (+). Specifically, the residues present in the arginase structure were replaced by those corresponding to the agmatinase sequence of E. coli.
(§3) All assays were initiated by adding the enzyme to a previously equilibrated buffer with the substrate in solution (the concentrations of used substrates were between 0.2–3 fold the Km). Urea was determined by a colorimetric method with α-isonitrosopropiophenone. The protein concentrations were determined by the Bradford’s method, with bovine serum albumin as standard. Initial velocity and enzymatic inhibition experiments were performed in duplicate and repeated three times. The inhibitory patterns were initially determined by double reciprocal plots and re-plots of intercepts and slopes versus inhibitor concentrations. […] Velocities are expressed as μmol of urea/10 min.

[2] = target: T2, human arginase type I N130D-S137C (Homo sapiens, UniProt P05089, N130D/S137C); assay: Kinetic and inhibition studies, N130D-S137C mutant; type: biochemical
T2 sequence (P05089 1-322 N130D/S137C): T1 sequence (P05089 1-322 D181T) with N130D, S137C, T181D
Description: as §1, §2
All assays were initiated by adding the enzyme to a previously equilibrated buffer with the substrate in solution (the concentrations of used substrates were between 0.2–3 fold the Km). Urea was determined by a colorimetric method with α-isonitrosopropiophenone. The protein concentrations were determined by the Bradford’s method, with bovine serum albumin as standard. […]

[3] = target: single, double and triple mutants (N130D, S137C, N139D) of human arginase type I; assay: Kinetic properties stated for all loop A mutants together; type: biochemical; details: all mutants of Table 1; substrate arginine; read-out: Ki for competitive inhibition by the ornithine product
Description: as §1
The single, double, triple, and chimera variants of human arginase type I were obtained by PCR, using the QuickChange site-directed mutagenesis kit (Stratagene, La Jolla, CA, USA); the plasmid pBluescript II KS(+) containing the human liver arginase cDNA was used as template. […]

[4] = target: T3, type I human arginase V182E (Homo sapiens, UniProt P05089, V182E); assay: Kinetic and inhibition studies, V182E mutant; type: biochemical; details: substrate arginine
T3 sequence (P05089 1-322 V182E): T1 sequence (P05089 1-322 D181T) with T181D, V182E
Description: as §1, §2, §3

[5] = target: T4, Chimera A2 (I129T/N130Y/T131A+∆ P132-T134) of human arginase type I (Homo sapiens, UniProt P05089, DEL129-131/I129T/L133Y/N130Y/P132T/T134A); assay: Kinetic and inhibition studies, Chimera A2; type: biochemical
T4 construct: made in house; host or cells: E. coli JM109
T4 sequence (P05089 with tags, fused parts or gaps DEL129-131/P132T/L133Y/T134A): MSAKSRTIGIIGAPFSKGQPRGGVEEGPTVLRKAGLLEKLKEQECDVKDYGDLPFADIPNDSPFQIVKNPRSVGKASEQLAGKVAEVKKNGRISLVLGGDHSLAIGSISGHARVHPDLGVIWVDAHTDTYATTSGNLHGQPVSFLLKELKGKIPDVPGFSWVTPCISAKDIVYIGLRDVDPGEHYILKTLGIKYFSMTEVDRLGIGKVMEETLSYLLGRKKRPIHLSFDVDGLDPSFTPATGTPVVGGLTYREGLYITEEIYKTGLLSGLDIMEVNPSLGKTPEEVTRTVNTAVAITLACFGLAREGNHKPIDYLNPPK
Description: as §1, §2, §3

[6] = system: arginase N130A; set-up: method as in PMID 19093830; details: substrate arginine; cited from earlier work
[7] = system: arginase N130Y; set-up: method as in PMID 19093830; details: substrate arginine; cited from earlier work
[8] = system: human arginase D183N; set-up: method as in PMID 19093830; details: substrate arginine; cited from earlier work

SMILES	Inhibition type [1]	Kis [1]	Ki ([2]; read-out: Ki^orn)	Ki [3]	Inhibition type [4]	Kis [4]	Inhibition by ornithine compared with wild-type arginase ([5]; pH 9.5, 37 °C, substrate 5 mM, Figure 4A)	increase of Km for arginine [6]	reduction of kcat [6]	kcat [1]	Km ([1]; pH 9.5, 2 mM Mn2+)	decrease in kcat [7]	kcat ([2]; substrate = labelled compound)	Km ([2]; substrate = labelled compound, pH 9.5, 2 mM Mn2+)	kcat [4]	Km ([4]; pH 9.5, 2 mM Mn2+)	Inhibition type ([5]; substrate agmatine)	Kis ([5]; substrate agmatine)	increase in Km [8]	reduction in kcat [8]
NCCC[C@H](N)C(=O)O [Ornithine, L-ornithine]	Competitive	1.6 ± 0.3 mM	7.1 mM	~7 mM	Competitive	3.2 ± 0.2 mM	much more insensitive to inhibition by ornithine than the wild-type arginase													
N=C(N)NCCC[C@H](N)C(=O)O [Arginine, L-arginine]								50 fold	37%	191 ± 8 s⁻¹	5.3 ± 0.8 mM	approximately 20 times	23 s⁻¹	6.5 mM	187 ± 10 s⁻¹	2.4 ± 0.2 mM	linear competitive inhibition	9 ± 3 mM	27 fold	12%
